From patent US10604509B2, “Nrf2 regulators” (GlaxoSmithKline Intellectual Property Development Limited, priority 2015, dated 2020)
Counter-ions that a name gives are not always drawn.

system: NQO1 specific enzyme activity in BEAS-2B cells; test: BEAS-2B NQO1 MTT assay; format: cell-based; details: BEAS-2B cells, 48 hours with compound, MTT readout; formic acid salt; read-out: EC50 of NQO1 specific activity induction
Summary of the method: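 BEAS-2B cells treated with compound 48 h at 37° C, 5% CO2, then lysed; NQO1 activity in lysate measured kinetically by MTT cocktail at Absorbance 570 nm over 30 min. EC50 for induction from Delta OD/min versus log concentration, 3-parameter fit; Cell Titer Glo run on lysate aliquot.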

Molecule | EC50 [nM]
Cc1ccc(C(c2ccc3c(nnn3C)c2C)C(C)(C)C(=O)O)cc1Cn1ccnc1CN1CCCCCC1 (centres unmarked) [Example 151, 3-(3-((2-(Azepan-1-ylmethyl)-1H-imidazol-1-yl)methyl)-4-methylphenyl)-3-(1,4-dimethyl-1H-benzo-[d][1,2,3]triazol-5-yl)-2,2-domethylpropanoic acid, 0.3 formic acid salt] | 1 to 10

same assay, conditions: BEAS-2B cells, 48 hours with compound, MTT readout; read-out: EC50 of NQO1 specific activity induction

Molecule | EC50 [nM]
CC[C@@H]1CN(Cc2cc(C(CCc3cn(CC)nn3)C(C)C(=O)O)ccc2C)Cc2ccccc2O1 (single isomer, unassigned; isomer 1) [Example 118] | 1000 to 10000
3-(1,4-dimethyl-1H-benzo[d][1,2,3]triazol-5-yl)-3-(3-((8-methoxy-4-methyl-4,5-dihydro-1H-benzo[c]azepin-2(3H)-yl)methyl)-4-methylphenyl)propanoic Acid [Example 7] | 1000 to 10000
Cc1ccc(C(CC(=O)O)c2ccc3c(nnn3C)c2C)cc1CN1Cc2ncccc2OC(C)(C)C1 (stereo in doubt) [Example 170, (S)-3-(1,4-Dimethyl-1H-benzo[d][1,2,3]triazol-5-yl)-3-(3-((2,2-dimethyl-2,3-dihydropyrido[2,3-f][1,4]oxazepin-4(5H)-yl)methyl)-4-methylphenyl)propanoic acid, 0.5 Formlc acid salt] | 10 to 100
Cc1ccc([C@@H](CC(=O)O)c2ccc3c(nnn3C)c2C)cc1CN1CCCC(n2cccn2)C1 (single isomer, unassigned; isomer 1) [Example 157] | 100 to 1000

same assay, conditions: Homo sapiens, BEAS-2B, 48 h, BEAS-2B cells, 48 hours with compound, MTT readout; read-out: EC50 of NQO1 specific activity induction

Molecule | EC50 [nM]
CC[C@@H]1CN(Cc2cc(C(c3ccc4c(nnn4C)c3C)C(C)(C)C(=O)O)ccc2C)Cc2ccc(F)cc2O1 (stereo partly drawn) [Example 33, 3-(1,4-Dimethyl-1H-benzo[d][1,2,3]triazol-5-yl)-3-(3-(((R)-2-ethyl-8-fluoro-2,3-dihydrobenzo[f][1,4]oxaz-epin-4(5H)-yl)methyl)-4-methylphenyl)-2,2-dimethylpropanoic acid, formic acid salt] | 10 to 100
CCC1CCN(Cc2nccn2Cc2cc([C@@H](c3ccc4c(nnn4C)c3C)C(C)(C)C(=O)O)ccc2Cl)CC1 [Example 237, (S)-3-(4-Chloro-3-((2-((4-ethylpiperidin-1-yl)methyl)-1H-imidazol-1-yl)methyl)phenyl)-3-(1,4-dimethyl-1H-benzo[d][1,2,3]triazol-5-yl)-2,2-dimethylpropanoic Acid] | < 1
CCC1Cc2ccccc2CN(Cc2cc(C(CC(=O)O)c3ccc4c(nnn4C)c3C)ccc2C)C1 (centres unmarked) [Example 106, 3-(1,4-Dimethyl-1H-benzo[d][1,2,3]triazol-5-yl)-3-(3-((4-ethyl-4,5-dihydro-1H-benzo[c]azepin-2(3H)-yl)methyl)-4-methylphenyl)propanoic Acid] | 100 to 1000
CCn1nnc2c(C)c([C@@H](c3ccc(C)c(CN4Cc5ccccc5OC(C)(C)C4)c3)[C@H](C)C(=O)O)ccc21 [Example 200, (2S,3R)-3-(3-((2,2-Dimethyl-2,3-dihydrobenzo[f][1,4]oxazepin-4(5H)-yl)methyl)-4-methylphenyl)-3-(1-ethyl-4-methyl-1H-benzo[d][1,2,3]triazol-5-yl)-2-methylpropanoic Acid, 2 Trifluoroacetic Acid Salt] | 10 to 100
Cc1ccc([C@@H](CC(=O)O)c2ccc3c(nnn3C)c2C)cc1CN1Cc2cccc(F)c2OC(C)(C)C1 [Example 177, (R)-3-(1,4-Dimethyl-1H-benzo[d][1,2,3]triazol-5-yl)-3-(3-((9-fluoro-2,2-dimethyl-2,3-dihydrobenzo[f][1,4]oxazepin-4(5H)-yl)methyl)-4-methylphenyl)propanoic acid] | 10 to 100
CC[C@@H]1CN(Cc2cc(C(CC(=O)O)c3ccc4c(c3)nnn4C)ccc2C)Cc2ccccc2O1 (stereo partly drawn) [Example 91, 3-(3-(((R)-2-Ethyl-2,3-dihydrobenzo[f][1,4]oxazepin-4(5H)-yl)methyl)-4-methylphenyl)-3-(1-methyl-1H-benzo[d][1,2,3]triazol-5-yl)propanoic acid] | 100 to 1000
CCC1Cc2c(F)cccc2CN(Cc2cc(C(c3ccc4c(nnn4C)c3C)C(C)(C)C(=O)O)ccc2C)C1 (centres unmarked) [Example 36, 3-(1,4-Dimethyl-1H-benzo[d][1,2,3]triazol-5-yl)-3-(3-((4-ethyl-6-fluoro-4,5-dihydro-1H-benzo[c]azepin-2(3H)-yl)methyl)-4-methylphenyl)-2,2-dimethylpropanoic acid] | 1 to 10
Cc1ccc(C(CC(=O)O)c2ccc3c(nnn3C)c2C)cc1Cn1ccnc1CC1CCOCC1 (centres unmarked) [Example 129, 3-(1,4-Dimethyl-1H-Benzo[d][1,2,3]triazol-5-yl)-3-(4-methyl-3-((2-((tetrahydro-2H-pyran-4-yl)methyl)-1H-imidazol-1-yl)methyl)phenyl)propanoic Acid] | 100 to 1000
CCC1CCN(Cc2nccn2Cc2cc([C@@H](c3ccc4c(nnn4CC)c3C)C(C)(C)C(=O)O)ccc2C)CC1 [Example 239, (S)-3-(1-Ethyl-4-methyl-1H-benzo[d][1,2,3]triazol-5-yl)-3-(3-((2-((4-ethylpiperidin-1-yl)methyl)-1H-imidazol-1-yl)methyl)-4-methylphenyl)-2,2-dimethylpropanoic Acid] | < 1
CCc1nc(C2CCCCN2Cc2cc(C(CC(=O)O)c3ccc4c(nnn4C)c3C)ccc2C)no1 (centres unmarked) [Example 12, Ammonium 3-(1,4-dimethyl-1H-benzo[d][1,2,3]triazol-5-yl)-3-(3-((2-(5-ethyl-1,2,4-oxadiazol-3-yl)piperidin-1-yl)methyl)-4-methylphenyl)propanoate] | 100 to 1000
CCC1CN(Cc2cc([C@@H](CC(=O)O)c3ccc4c(nnn4C)c3C)ccc2C)Cc2ccccc2O1 (stereo partly drawn) [Example 6, (3R)-3-(1,4-Dimethyl-1H-benzo[d][1,2,3]triazol-5-yl)-3-(3-((2-ethyl-2,3-dihydrobenzo[f][1,4]oxazepin-4(5H)-yl)methyl)-4-methylphenyl)propanoic Acid, Trifluoroacetic Acid Salt] | 100 to 1000
CCn1nnc2c(C)c([C@H](c3ccc(C)c(CN4Cc5cnccc5OC(C)(C)C4)c3)[C@@H](C)C(=O)O)ccc21 [Example 196, (2R,3S)-3-(3-((2,2-Dimethyl-2,3-dihydropyrido[3,4-f][1,4]oxazepin-4(5H)-yl)methyl)-4-methylphenyl)-3-(1-ethyl-4-methyl-1H-benzo[d][1,2,3]triazol-5-yl)-2-methylpropanoic acid, Trifluoroacetic acid salt] | 1 to 10
CCc1ncc2c(n1)CN(Cc1cc(C(CC(=O)O)c3ccc4c(nnn4C)c3C)ccc1C)CC2 (centres unmarked) [Example 13, Ammonium 3-(1,4-dimethyl-1H-benzo[d][1,2,3]triazol-5-yl)-3-(3-((2-ethyl-5,6-dihydropyrido[3,4-d]pyrimidin-7(8H)-yl)methyl)-4-methylphenyl)propanoate] | 1000 to 10000
CC[C@@H]1CN(Cc2cc(C(CC(=O)O)c3ccc4c(nnn4C)c3C)ccc2C)Cc2cccc(F)c2O1 (stereo partly drawn) [Example 80, 3-(1,4-Diemthyl-1H-benzo[d][1,2,3]triazol-5-yl)-3-(3-(((R)-2-ethyl-9-fluoro-2,3-dihydrobenzo[f][1,4]oxazepin-4(5H)-yl)methyl)-4-methylphenyl)propanoic acid, formic acid salt] | 10 to 100
CC[C@@H]1CN(Cc2cc([C@@H](c3ccc4c(nnn4C)c3C)[C@H](C)C(=O)O)ccc2C)Cc2ccccc2O1 [Example 41, (2S,3S)-3-(1,4-Dimethyl-1H-benzo[d][1,2,3]triazol-5-yl)-3-(3-(((R)-2-ethyl-2,3-dihydrobenzo[f][1,4]oxazepin-4(5H)-yl)methyl)-4-methylphenyl)-2-methylpropanoic Acid] | 100 to 1000
CCCC1CN(Cc2cc(C(CC(=O)O)c3ccc4c(nnn4C)c3C)ccc2C)Cc2ccccc2O1 (centres unmarked) [Example 71, 3-(1,4-dimethyl-1H-benzo[d][1,2,3]triazol-5-yl)-3-(4-methyl-3-((2-propyl-2,3-dihydrobenzo[f][1,4]oxazepin-4(5H)-yl)methyl)phenyl)propanoic Acid, Formic Acid Salt] | 100 to 1000
CC[C@@H]1CN(Cc2cc(C(CCc3cn(CC)nn3)CC(=O)O)ccc2C)Cc2cnccc2O1 (stereo partly drawn) [Example 232, 5-(1-Ethyl-1H-1,2,3-triazol-4-yl)-3-(3-(((R)-2-ethyl-2,3-dihydropyrido[3,4-f][1,4]oxazepin-4(5H)-yl)methyl)-4-methylphenyl)pentanoic Acid] | 100 to 1000
COc1cc(C(CC(=O)O)c2ccc(Cl)c(CN3CCCC(n4cccn4)C3)c2)c(C)c2nnn(C)c12 (centres unmarked) [Example 164, 3-(3-((3-(1H-pyrazol-1-yl)piperidin-1-yl)methyl)-4-chlorophenyl)-3-(7-methoxy-1,4-dimethyl-1H-benzo[d][1,2,3]triazol-5-yl)propanoic Acid, Formic Acid Salt] | 100 to 1000
CC[C@@H]1CN(Cc2nc(C(c3ccc4c(nnn4C)c3C)C(C)(C)C(=O)O)ccc2C)Cc2cnccc2O1 (stereo partly drawn) [Example 212, 3-(1,4-Dimethyl-1H-benzo[d][1,2,3]triazol-5-yl)-3-(6-(((R)-2-ethyl-2,3-dihydropyrido[3,4-f][1,4]oxazepin-4(5H)-yl)methyl)-5-methylpyridin-2-yl)-2,2-dimethylpropanoic Acid, Formic Acid Salt] | 10 to 100
CC[C@@H]1CN(Cc2cc([C@@H](c3ccc4c(nnn4C)c3C)C(C)(C)C(=O)O)ccc2C)Cc2c(ccnc2F)O1 [Example 222, (S)-3-(1,4-Dimethyl-1H-benzo[d][1,2,3]triazol-5-yl)-3-(3-(((R)-2-ethyl-6-fluoro-2,3-dihydropyrido[3,4-f][1,4]oxazepin-4(5H)-yl)methyl)-4-methylphenyl)-2,2-dimethylpropanoic Acid] | < 1
CC[C@@H]1CN(Cc2cc(C(c3ccc4c(nnn4C)c3C)C(C)(C)C(=O)O)ccc2C)Cc2cc(F)ccc2O1 (stereo partly drawn) [Example 32, 3-(1,4-Dimethyl-1H-benzo[d][1,2,3]triazol-5-yl)-3-(3-(((R)-2-ethyl-7-fluoro-2,3-dihdyrobenzo[f][1,4]oxaz-epin-4(5H)-yl)methyl)-4-methylphenyl)-2,2-dimethylpropanoic acid, formic acid salt] | 1 to 10
